# Experimental data: patent US9290777B2, “Putative cytokinin receptor and methods for use thereof” (NATIONAL UNIVERSITY OF SINGAPORE, priority 2007, dated 2016)
# Entries after “also recorded” stand apart in the source; their conditions may differ.
# System: STM
# Test: qRT-PCR of cytokinin responsive gene after BA pulse, fold change vs untreated wild type
# Format: cell-based, Arabidopsis thaliana
# Experimental: For quantitative real-time PCR (qRT-PCR) analysis of cytokinin-inducible gene expression, seeds were germinated on MS medium with 3% (w/v) sucrose and grown for 6 days. Cytokinin treatment was carried out by incubating seedlings in the same MS+sucrose liquid medium (no agar) supplemented with 0, 0.01, 0.1, 1 or 5 μM [solubilized in 0.1% dimethylsulfoxide (DMSO) and diluted with the MS medium] for 5 min, 15 min, 30 min or 1 h. The control seedlings were incubated with DMSO (0.1%, the concentration used to dissolve cytokinins for the treatment) for the corresponding durations and used for expression analysis. Before RNA preparation, WT, OE and AS seedlings were pooled and stored in RNAlater solution (Qiagen, Valencia, Calif.). Total RNA was extracted using the Rneasy Plant Mini Kit (Qiagen). SYBRgreen RT-PCR reagents (Applied Biosystems) were used to synthesize double-stranded cDNA. The number of transcripts present in biological replicates each of WT, OE and AS seedlings, with or without BA and DMSO, was determined from three independent replicates. Fold induction of the transcripts was calculated according to the manufacturer's instructions (ABI Prism 7700 Sequence Detection System, User Bulletin #2).
compound,measurement,setting,value
c1ccc(CNc2ncnc3nc[nH]c23)cc1 [benzyladenine],STM transcripts in OE lines compared to untreated wild type,"5 μM BA, 1 h, OE lines (e.g. OE1, OE12), listed as BA",less than a two fold change; also recorded: no significant difference
same,STM fold change,"BA 0.01 μM, 5 min, AS1, ↑ up",3.23↑
same,STM fold change,"BA 0.01 μM, 5 min, AS8, ↑ up",5.2↑
same,STM fold change,"BA 0.01 μM, 5 min, AS21, ↑ up",7.1↑
same,STM fold change,"BA 0.01 μM, 5 min, OE1, ↓ down",3.41↓
same,STM fold change,"BA 0.01 μM, 5 min, OE12, ↓ down",4.97↓
same,STM fold change,"BA 0.01 μM, 5 min, OE18, ↓ down",6.23↓
same,STM fold change,"BA 0.01 μM, 5 min, Wild type, ↑ up",2.45↑
same,STM fold change,"BA 0.01 μM, 15 min, AS1, ↑ up",3.67↑
same,STM fold change,"BA 0.01 μM, 15 min, AS8, ↑ up",5.58↑
same,STM fold change,"BA 0.01 μM, 15 min, AS21, ↑ up",7.48↑
same,STM fold change,"BA 0.01 μM, 15 min, OE1, ↓ down",3.23↓
same,STM fold change,"BA 0.01 μM, 15 min, OE12, ↓ down",4.65↓
same,STM fold change,"BA 0.01 μM, 15 min, OE18, ↓ down",6.02↓
same,STM fold change,"BA 0.01 μM, 15 min, Wild type, ↑ up",2.54↑
same,STM fold change,"BA 0.01 μM, 30 min, AS1, ↑ up",3.91↑
same,STM fold change,"BA 0.01 μM, 30 min, AS8, ↑ up",5.95↑
same,STM fold change,"BA 0.01 μM, 30 min, AS21, ↑ up",7.69↑
same,STM fold change,"BA 0.01 μM, 30 min, OE1, ↓ down",3.01↓
same,STM fold change,"BA 0.01 μM, 30 min, OE12, ↓ down",4.31↓
same,STM fold change,"BA 0.01 μM, 30 min, OE18, ↓ down",5.91↓
same,STM fold change,"BA 0.01 μM, 30 min, Wild type, ↑ up",3.01↑
same,STM fold change,"BA 0.01 μM, 1 h, AS1, ↑ up",4.1↑
same,STM fold change,"BA 0.01 μM, 1 h, AS8, ↑ up",6.06↑
same,STM fold change,"BA 0.01 μM, 1 h, AS21, ↑ up",8.05↑
same,STM fold change,"BA 0.01 μM, 1 h, OE1, ↓ down",2.81↓
same,STM fold change,"BA 0.01 μM, 1 h, OE12, ↓ down",3.96↓
same,STM fold change,"BA 0.01 μM, 1 h, OE18, ↓ down",5.82↓
same,STM fold change,"BA 0.01 μM, 1 h, Wild type, ↑ up",3.2↑
same,STM fold change,"BA 0.1 μM, 5 min, AS1, ↑ up",4.24↑
same,STM fold change,"BA 0.1 μM, 5 min, AS8, ↑ up",6.22↑
same,STM fold change,"BA 0.1 μM, 5 min, AS21, ↑ up",8.21↑
same,STM fold change,"BA 0.1 μM, 5 min, OE1, ↓ down",3.2↓
same,STM fold change,"BA 0.1 μM, 5 min, OE12, ↓ down",3.81↓
same,STM fold change,"BA 0.1 μM, 5 min, OE18, ↓ down",5.79↓
same,STM fold change,"BA 0.1 μM, 5 min, Wild type, ↑ up",3.56↑
same,STM fold change,"BA 0.1 μM, 15 min, AS1, ↑ up",4.49↑
same,STM fold change,"BA 0.1 μM, 15 min, AS8, ↑ up",6.39↑
same,STM fold change,"BA 0.1 μM, 15 min, AS21, ↑ up",8.36↑
same,STM fold change,"BA 0.1 μM, 15 min, OE1, ↓ down",3.14↓
same,STM fold change,"BA 0.1 μM, 15 min, OE12, ↓ down",3.73↓
same,STM fold change,"BA 0.1 μM, 15 min, OE18, ↓ down",5.61↓
same,STM fold change,"BA 0.1 μM, 15 min, Wild type, ↑ up",3.68↑
same,STM fold change,"BA 0.1 μM, 30 min, AS1, ↑ up",4.79↑
same,STM fold change,"BA 0.1 μM, 30 min, AS8, ↑ up",6.63↑
same,STM fold change,"BA 0.1 μM, 30 min, AS21, ↑ up",8.58↑
same,STM fold change,"BA 0.1 μM, 30 min, OE1, ↓ down",2.92↓
same,STM fold change,"BA 0.1 μM, 30 min, OE12, ↓ down",3.49↓
same,STM fold change,"BA 0.1 μM, 30 min, OE18, ↓ down",5.34↓
same,STM fold change,"BA 0.1 μM, 30 min, Wild type, ↑ up",3.85↑
same,STM fold change,"BA 0.1 μM, 1 h, AS1, ↑ up",4.97↑
same,STM fold change,"BA 0.1 μM, 1 h, AS8, ↑ up",6.94↑
same,STM fold change,"BA 0.1 μM, 1 h, AS21, ↑ up",8.87↑
same,STM fold change,"BA 0.1 μM, 1 h, OE1, ↓ down",2.76↓
same,STM fold change,"BA 0.1 μM, 1 h, OE12, ↓ down",3.01↓
same,STM fold change,"BA 0.1 μM, 1 h, OE18, ↓ down",5.01↓
same,STM fold change,"BA 0.1 μM, 1 h, Wild type, ↑ up",3.96↑
same,STM fold change,"BA 1.0 μM, 5 min, AS1, ↑ up",5.53↑
same,STM fold change,"BA 1.0 μM, 5 min, AS8, ↑ up",7.8↑
same,STM fold change,"BA 1.0 μM, 5 min, AS21, ↑ up",8.89↑
same,STM fold change,"BA 1.0 μM, 5 min, OE1, ↓ down",2.86↓
same,STM fold change,"BA 1.0 μM, 5 min, OE12, ↓ down",2.89↓
same,STM fold change,"BA 1.0 μM, 5 min, OE18, ↓ down",4.26↓
same,STM fold change,"BA 1.0 μM, 5 min, Wild type, ↑ up",4.11↑
same,STM fold change,"BA 1.0 μM, 15 min, AS1, ↑ up",5.78↑
same,STM fold change,"BA 1.0 μM, 15 min, AS8, ↑ up",7.93↑
same,STM fold change,"BA 1.0 μM, 15 min, AS21, ↑ up",9.02↑
same,STM fold change,"BA 1.0 μM, 15 min, OE1, ↓ down",2.61↓
same,STM fold change,"BA 1.0 μM, 15 min, OE12, ↓ down",2.56↓
same,STM fold change,"BA 1.0 μM, 15 min, OE18, ↓ down",4.11↓
same,STM fold change,"BA 1.0 μM, 15 min, Wild type, ↑ up",4.36↑
same,STM fold change,"BA 1.0 μM, 30 min, AS1, ↑ up",5.83↑
same,STM fold change,"BA 1.0 μM, 30 min, AS8, ↑ up",7.99↑
same,STM fold change,"BA 1.0 μM, 30 min, AS21, ↑ up",9.25↑
same,STM fold change,"BA 1.0 μM, 30 min, OE1, ↓ down",2.39↓
same,STM fold change,"BA 1.0 μM, 30 min, OE12, ↓ down",2.87↓
same,STM fold change,"BA 1.0 μM, 30 min, OE18, ↓ down",4.01↓
same,STM fold change,"BA 1.0 μM, 30 min, Wild type, ↑ up",4.69↑
same,STM fold change,"BA 1.0 μM, 1 h, AS1, ↑ up",6.21↑
same,STM fold change,"BA 1.0 μM, 1 h, AS8, ↑ up",8.07↑
same,STM fold change,"BA 1.0 μM, 1 h, AS21, ↑ up",9.66↑
same,STM fold change,"BA 1.0 μM, 1 h, OE1, ↓ down",2.11↓
same,STM fold change,"BA 1.0 μM, 1 h, OE12, ↓ down",2.62↓
same,STM fold change,"BA 1.0 μM, 1 h, OE18, ↓ down",3.82↓
same,STM fold change,"BA 1.0 μM, 1 h, Wild type, ↑ up",4.97↑
same,STM fold change,"BA 5.0 μM, 5 min, AS1, ↑ up",6.01↑
same,STM fold change,"BA 5.0 μM, 5 min, AS8, ↑ up",8.46↑
same,STM fold change,"BA 5.0 μM, 5 min, AS21, ↑ up",9.33↑
same,STM fold change,"BA 5.0 μM, 5 min, OE1, ↓ down",2.29↓
same,STM fold change,"BA 5.0 μM, 5 min, OE12, ↓ down",2.49↓
same,STM fold change,"BA 5.0 μM, 5 min, OE18, ↓ down",3.35↓
same,STM fold change,"BA 5.0 μM, 5 min, Wild type, ↑ up",5.62↑
same,STM fold change,"BA 5.0 μM, 15 min, AS1, ↑ up",6.21↑
same,STM fold change,"BA 5.0 μM, 15 min, AS8, ↑ up",8.63↑
same,STM fold change,"BA 5.0 μM, 15 min, AS21, ↑ up",9.44↑
same,STM fold change,"BA 5.0 μM, 15 min, OE1, ↓ down",2.11↓
same,STM fold change,"BA 5.0 μM, 15 min, OE12, ↓ down",2.13↓
same,STM fold change,"BA 5.0 μM, 15 min, OE18, ↓ down",3.28↓
same,STM fold change,"BA 5.0 μM, 15 min, Wild type, ↑ up",5.89↑
same,STM fold change,"BA 5.0 μM, 30 min, AS1, ↑ up",6.43↑
same,STM fold change,"BA 5.0 μM, 30 min, Wild type, ↑ up",5.99↑
same,"STM transcripts, dose dependence","BA 0.01-5 μM pulse, 5 min-1 h",dose-dependent increase
